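All cell lines were grown in 96-well plates and treated with compound for 48 hours. TGI: concentration producing complete growth inhibition.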 A value given as a limit tells only on which side of the number the result lay.

Some test systems named below: ACHN renal; EKVX NSCLC; HCT-116 colon; HCT-15 colon; HT29 colon; KM12 colon; MOLT-4 leukemia; NCI-H460 lung; SN12C renal; UACC-62 melanoma.
Assay in all cases: NCI anticancer screen, dose series, 48 h

In the case of `CCC1(CCSC(=N)N)C(=O)NC(=O)NC1=O`, the TGI with ACHN renal, with EKVX NSCLC, in the assay with HCT-116 colon, in the assay with HCT-15 colon, in the assay with HT29 colon and in the assay with KM12 colon was above 100 µM throughout. For the same compound, the TGI in the assay on MOLT-4 leukemia, in the assay on NCI-H460 lung, with SN12C renal and in the assay on UACC-62 melanoma was above 100 µM in each case.

Take `C=C1CC[C@@H](Br)C(C)(C)[C@]12CCC(C)(O)C(Cl)C2` (stereo partly specified): the TGI worked out at 36.4 µM in the assay with ACHN renal; 40.2 µM in the assay on EKVX NSCLC; 32.3 µM in the assay with HCT-116 colon; 30.4 µM in the assay with HCT-15 colon; 33.4 µM in the assay with HT29 colon; 33.8 µM in the assay with KM12 colon. Moreover, the TGI with MOLT-4 leukemia turned out to be 38.3 µM; in the assay with NCI-H460 lung, 32.1 µM; in the assay with SN12C renal, 30 µM; in the assay on UACC-62 melanoma, 41.4 µM.

`O=C(O)NCc1ccccc1` (tested in a mixture with another compound): the TGI with ACHN renal was above 100 µM; in the assay with EKVX NSCLC it was above 85.1 µM; in the assay on HCT-116 colon, above 100 µM; in the assay with HCT-15 colon it was above 100 µM; with HT29 colon, above 100 µM; in the assay with KM12 colon, above 80.4 µM. Moreover, the TGI with MOLT-4 leukemia was 45.9 µM; in the assay with NCI-H460 lung, above 87.1 µM; with SN12C renal it was above 100 µM; with UACC-62 melanoma, 37.2 µM.

Consider `CC(=O)OC/C=C/Cn1ncc(=O)[nH]c1=O`, for which the TGI with ACHN renal, in the assay on EKVX NSCLC, in the assay with HCT-15 colon, with HT29 colon, with KM12 colon and in the assay with MOLT-4 leukemia was above 100 µM each time. Also, the TGI in the assay on NCI-H460 lung and in the assay on SN12C renal was above 100 µM throughout.

For the compound `O=[As](O)(O)c1ccc(N=Nc2ccc([As](=O)(O)O)cc2)cc1`, the TGI in the assay on ACHN renal, in the assay on EKVX NSCLC, in the assay with HCT-116 colon, in the assay with HCT-15 colon, with HT29 colon and in the assay on KM12 colon was above 100 µM in each case. Further, the TGI in the assay on MOLT-4 leukemia, in the assay with NCI-H460 lung, in the assay on SN12C renal and in the assay on UACC-62 melanoma was above 100 µM throughout.

`Nc1nncc2c1ccn2C1OC(CO)C(O)C1O` (stereo unspecified): the TGI in the assay with ACHN renal, in the assay on EKVX NSCLC, with HCT-116 colon, in the assay on HCT-15 colon, in the assay on HT29 colon and in the assay with KM12 colon was above 100 µM each time. In addition, the TGI in the assay with MOLT-4 leukemia, with NCI-H460 lung, with SN12C renal and with UACC-62 melanoma was above 100 µM each time.

With `O=C(O)CCSCc1ccc(I)cc1`, the TGI in the assay with ACHN renal, with EKVX NSCLC, in the assay on HCT-116 colon, in the assay on HCT-15 colon, in the assay with HT29 colon and in the assay on KM12 colon was above 100 µM each time. Further, the TGI in the assay with MOLT-4 leukemia, in the assay on NCI-H460 lung, in the assay on SN12C renal and with UACC-62 melanoma was above 100 µM each time.

As for `COc1cc(N/N=C/C#N)cc(OC)c1OC`, the TGI with ACHN renal, in the assay on EKVX NSCLC, with HCT-116 colon, with HCT-15 colon, in the assay with HT29 colon and in the assay with KM12 colon was above 10 µM throughout. Besides, the TGI in the assay on MOLT-4 leukemia, with NCI-H460 lung, in the assay with SN12C renal and in the assay with UACC-62 melanoma was above 10 µM throughout.

With `Cc1cc2c(cc1C)[n+](=O)c(C#N)c(Cl)n2[O-]`, the TGI in the assay on ACHN renal is 23.9 µM; in the assay on EKVX NSCLC, 28.5 µM; with HCT-116 colon, 32 µM; in the assay with HCT-15 colon, 16.7 µM; in the assay with HT29 colon, 19.7 µM; in the assay on MOLT-4 leukemia it was 48.5 µM. The TGI with NCI-H460 lung stood at 24.2 µM; in the assay on SN12C renal, 28.3 µM; in the assay on UACC-62 melanoma, 29.6 µM.

As for `O=C(CCl)NC(Cc1ccc(F)cc1)C(=O)O` (stereo unspecified), the TGI in the assay on EKVX NSCLC, in the assay on HCT-116 colon, with HCT-15 colon, with HT29 colon, with KM12 colon and in the assay with MOLT-4 leukemia was above 100 µM in each case. The TGI in the assay with NCI-H460 lung, in the assay on SN12C renal and in the assay with UACC-62 melanoma was above 100 µM each time.

For `CCOC(=O)[C@H]1Nc2c(cccc2[N+](=O)[O-])[C@H]2OCC[C@@H]12`, the TGI with ACHN renal, in the assay with EKVX NSCLC, with HCT-116 colon, in the assay on HCT-15 colon, in the assay with HT29 colon and in the assay with KM12 colon was above 100 µM throughout. Also, the TGI in the assay with MOLT-4 leukemia, with NCI-H460 lung, with SN12C renal and in the assay on UACC-62 melanoma was above 100 µM throughout.

In the case of `CC(C)OC(=O)C1=C(O)c2ccccc2S(=O)(=O)N1`, the TGI with ACHN renal, in the assay with EKVX NSCLC, in the assay on HCT-116 colon, in the assay on HCT-15 colon, in the assay on HT29 colon and in the assay on KM12 colon was above 100 µM each time. For the same compound, the TGI in the assay on MOLT-4 leukemia, in the assay on NCI-H460 lung, with SN12C renal and in the assay with UACC-62 melanoma was above 100 µM throughout.

Turning to `Nc1c(-c2nc3ccccc3o2)sc(=S)n1-c1ccc(Cl)cc1`, the TGI with ACHN renal was 24.1 µM; with EKVX NSCLC it was above 100 µM; with HCT-116 colon it was 29.3 µM; in the assay with HCT-15 colon, above 100 µM; in the assay on HT29 colon it was above 100 µM; with KM12 colon, above 100 µM. In addition, the TGI in the assay on MOLT-4 leukemia was above 100 µM; with NCI-H460 lung, above 100 µM; in the assay with SN12C renal, above 100 µM; with UACC-62 melanoma it was 27.8 µM.

As to `O=C(N/C(=C\c1cccc([N+](=O)[O-])c1)c1nc2[nH]c(=S)[nH]c(=O)c2[nH]1)c1ccccc1`, the TGI in the assay with ACHN renal, in the assay with EKVX NSCLC, in the assay on HCT-116 colon, with HCT-15 colon, in the assay with HT29 colon and with KM12 colon was above 100 µM each time. Further, the TGI in the assay on MOLT-4 leukemia, in the assay on NCI-H460 lung, in the assay on SN12C renal and with UACC-62 melanoma was above 100 µM in each case.
